Experimental findings from patent US10168342B2, “Lipid probes and uses thereof” (THE SCRIPPS RESEARCH INSTITUTE, priority 2015, dated 2019) are described below.

Read-outs that look alike come from different tables or passages of the source.

Experiment [1] addresses AEA-DA lipid probe targets in Neuro2a cells (Mus musculus, UniProt P21619). Conditions: protein Lmnb2; Neuro2a cells; competitor 50 μM.
Experiment [2] addresses T1, AEA-DA lipid probe targets in Neuro2a cells (Mus musculus, UniProt P45878).
T1 sequence (P45878 23-140): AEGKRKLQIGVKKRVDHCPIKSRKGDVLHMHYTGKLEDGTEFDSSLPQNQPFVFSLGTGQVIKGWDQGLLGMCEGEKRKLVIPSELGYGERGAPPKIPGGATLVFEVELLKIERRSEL
Conditions: protein Fkbp2, Neuro2a cells.

Experiment [3] addresses T2, lipid-binding proteins in Neuro2a cells (Mus musculus, UniProt O08579).
T2 construct: endogenous in cells; host or cells: Neuro2a
Description: SILAC MS mapping of lipid probe targets (probe-versus-No UV, probe-versus-probe) in Neuro2a cells. It is filed as cell-based. Conditions: AEA-DA probe vs NoUV.

In experiment [4] the target is T3, lipid-binding proteins in Neuro2a cells (Mus musculus, UniProt O70252).
T3 construct: endogenous in cells; host or cells: Neuro2a
The description is as above. Conditions: AEA-DA probe vs NoUV. The experiment is classed as cell-based.

Experiment [5] addresses T4, lipid-binding proteins in Neuro2a cells (Mus musculus, UniProt Q3UV70).
T4 construct: endogenous in cells; host or cells: Neuro2a
Described as above. The following applies: protein Pdp1, AEA-DA probe, No UV control. The experiment is classed as cell-based.

In experiment [6] the target is T5, lipid-binding proteins in Neuro2a cells (Mus musculus, UniProt Q60930).
T5 construct: endogenous in cells; host or cells: Neuro2a
The experiment is described as above. It is filed as cell-based. Conditions: AEA-DA probe vs NoUV.

Experiment [7] concerns the target T6, lipid-binding proteins in Neuro2a cells (Mus musculus, UniProt Q61207).
T6 construct: endogenous in cells; host or cells: Neuro2a
Described as above. The experiment is classed as cell-based. Conditions: AEA-DA probe vs NoUV.

The target in experiment [8] is T7, lipid-binding proteins in Neuro2a cells (Mus musculus, UniProt Q78IK4).
T7 construct: endogenous in cells; host or cells: Neuro2a
The experiment is described as above. Conditions: protein Apool, AEA-DA probe, No UV control. It is filed as cell-based.

For experiment [9], the target named is T8, lipid-binding proteins in Neuro2a cells (Mus musculus, UniProt Q8BHC4).
T8 construct: endogenous in cells; host or cells: Neuro2a
Described as above. The experiment is classed as cell-based. The following applies: AEA-DA probe vs NoUV.

The target of experiment [10] is T9, lipid-binding proteins in Neuro2a cells (Mus musculus, UniProt Q8BVU5).
T9 construct: endogenous in cells; host or cells: Neuro2a
Described as above. It is filed as cell-based. The following applies: protein Nudt9, AEA-DA probe, No UV control.

The target of experiment [11] is T10, lipid-binding proteins in Neuro2a cells (Mus musculus, UniProt Q8R2Y0).
T10 construct: endogenous in cells; host or cells: Neuro2a
Described as above. The experiment is classed as cell-based. The following applies: AEA-DA probe vs NoUV.

In experiment [12] the target is T11, lipid-binding proteins in Neuro2a cells (Mus musculus, UniProt Q924D0).
T11 construct: endogenous in cells; host or cells: Neuro2a
The experiment is described as above. The experiment is classed as cell-based. Conditions: protein Rtn4ip1, AEA-DA probe, No UV control.

The target of experiment [13] is T12, lipid-binding proteins in Neuro2a cells (Mus musculus, UniProt Q99JY4).
T12 construct: endogenous in cells; host or cells: Neuro2a
The description is as above. It is filed as cell-based. Conditions: AEA-DA probe vs NoUV.

Experiment [14] has as its target T13, lipid-binding proteins in Neuro2a cells (Mus musculus, UniProt Q9CPQ3).
T13 construct: endogenous in cells; host or cells: Neuro2a
The description is as above. It is filed as cell-based. The following applies: AEA-DA probe vs NoUV.

Experiment [15] deals with T14, lipid-binding proteins in Neuro2a cells (Mus musculus, UniProt Q9R0P6).
T14 construct: endogenous in cells; host or cells: Neuro2a
Described as above. The experiment is classed as cell-based. The following applies: AEA-DA probe vs NoUV.

For experiment [16], the target named is T15, lipid-binding proteins in Neuro2a cells (Mus musculus, UniProt Q9R1J0).
T15 construct: endogenous in cells; host or cells: Neuro2a
Described as above. The experiment is classed as cell-based. The following applies: AEA-DA probe vs NoUV.

Experiment [17] deals with T16, lipid-binding proteins in Neuro2a cells (Mus musculus, UniProt Q9Z0R9).
T16 construct: endogenous in cells; host or cells: Neuro2a
The description is as above. The experiment is classed as cell-based. The following applies: AEA-DA probe vs NoUV.

For experiment [18], the target named is T17, NENF (Homo sapiens, UniProt Q9UMX5).
T17 construct: Full-length cDNAs encoding for the each protein of interest were subcloned into pcDNA3.1 myc-His A; Myc (myc-His of pcDNA3.1 myc-His A); expressed in transfected cells; host or cells: HEK293T (lysates)
Put plainly: In vitro gel-based competition of AEA-DA probe labeling of NENF. It is filed as binding. The following applies: competitors 1-100 μM, NENF-transfected HEK293T lysates. As to the method:
Full-length cDNAs encoding for the each protein of interest were subcloned into pcDNA3.1 myc-His A (Invitrogen) or used directly for transfections if available in a eukaryotic expression vector. HEK293T cells were grown to ˜70% confluence under standard growth conditions before adding the appropriate cDNA [control cells (“mock”) received an equal amount of empty pcDNA3.1 myc-His A vector] and FuGENE 6 or X-tremeGENE HP (Roche) transfection reagent according to the manufacturer's instructions. Cells were incubated for 36-48 hours before labeling in situ or harvesting for in vitro experiments.
Cell lysates (1.0 mg/mL), the indicated lipid probe (2.5 or 5 μM) and, for recombinant NUCB1 competition experiments, purified hNUCB1 (250 nM) and CaCl2 (100 μM) were mixed on ice. […] The samples were then irradiated with UV light and subjected to previously described click chemistry conditions. As before, each reaction was quenched with 4×SDS loading buffer (17 μL), and proteins were resolved using SDS-PAGE (10% acrylamide gel) and analyzed by in-gel fluorescent scanning on a Hitachi FMBIO-II flatbed fluorescence scanner. NUCB1 competition was quantitatively assessed by measuring the fluorescent intensity of the corresponding gel band using ImageJ 1.48v and normalizing this value by a non-competed gel band to control for loading differences.
Metabolite data are shown as mean±SEM (n=3-5/group). Differences between two groups were determined using Student's t test (unpaired, two-tailed) and significance was denoted for P values<0.05.

Experiment [19] addresses AEA-DA lipid probe targets in Neuro2a cells (Mus musculus, UniProt Q80YV4). The following applies: competitor 200 μM.
Experiment [20] deals with AEA-DA lipid probe targets in Neuro2a cells (Mus musculus, UniProt Q9QXS1). Conditions: competitor 25 μM.

T10 sequence (Q8R2Y0 whole entry): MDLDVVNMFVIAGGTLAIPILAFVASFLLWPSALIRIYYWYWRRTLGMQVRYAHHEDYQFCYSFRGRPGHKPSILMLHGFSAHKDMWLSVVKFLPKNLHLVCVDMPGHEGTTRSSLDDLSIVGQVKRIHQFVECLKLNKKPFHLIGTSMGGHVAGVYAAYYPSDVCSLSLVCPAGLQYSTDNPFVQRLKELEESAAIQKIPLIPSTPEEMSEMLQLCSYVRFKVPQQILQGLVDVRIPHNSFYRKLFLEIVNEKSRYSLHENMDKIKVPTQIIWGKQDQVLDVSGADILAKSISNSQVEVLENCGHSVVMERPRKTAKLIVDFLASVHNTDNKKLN
T5 sequence (Q60930 whole entry): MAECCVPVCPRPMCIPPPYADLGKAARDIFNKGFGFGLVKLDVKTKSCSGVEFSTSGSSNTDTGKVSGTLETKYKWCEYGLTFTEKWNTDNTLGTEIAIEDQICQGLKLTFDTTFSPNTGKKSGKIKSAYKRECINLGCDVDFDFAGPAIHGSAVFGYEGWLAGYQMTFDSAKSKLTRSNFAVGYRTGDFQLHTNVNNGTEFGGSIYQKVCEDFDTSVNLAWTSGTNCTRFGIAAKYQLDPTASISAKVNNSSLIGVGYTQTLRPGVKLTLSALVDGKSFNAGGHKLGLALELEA
T4 sequence (Q3UV70 72-538): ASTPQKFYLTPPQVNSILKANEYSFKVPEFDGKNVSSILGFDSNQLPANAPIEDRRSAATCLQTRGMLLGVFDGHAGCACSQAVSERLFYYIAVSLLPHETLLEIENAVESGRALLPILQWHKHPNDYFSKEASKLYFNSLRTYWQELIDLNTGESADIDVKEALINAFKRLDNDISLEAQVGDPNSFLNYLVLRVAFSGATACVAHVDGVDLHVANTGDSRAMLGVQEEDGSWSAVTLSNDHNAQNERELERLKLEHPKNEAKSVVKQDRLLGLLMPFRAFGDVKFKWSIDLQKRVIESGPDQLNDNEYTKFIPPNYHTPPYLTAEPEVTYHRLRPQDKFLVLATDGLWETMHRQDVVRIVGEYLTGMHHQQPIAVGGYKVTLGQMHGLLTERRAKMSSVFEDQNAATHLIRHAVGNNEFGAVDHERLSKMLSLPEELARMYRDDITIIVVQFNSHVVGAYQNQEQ
T2 sequence (O08579 whole entry): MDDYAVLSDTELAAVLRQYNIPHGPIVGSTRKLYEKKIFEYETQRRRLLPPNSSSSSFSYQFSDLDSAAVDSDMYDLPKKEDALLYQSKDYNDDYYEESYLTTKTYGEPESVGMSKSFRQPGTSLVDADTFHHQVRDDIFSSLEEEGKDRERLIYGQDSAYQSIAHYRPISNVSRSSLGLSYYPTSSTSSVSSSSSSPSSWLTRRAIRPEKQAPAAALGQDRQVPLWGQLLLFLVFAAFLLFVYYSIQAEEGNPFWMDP
T16 sequence (Q9Z0R9 whole entry): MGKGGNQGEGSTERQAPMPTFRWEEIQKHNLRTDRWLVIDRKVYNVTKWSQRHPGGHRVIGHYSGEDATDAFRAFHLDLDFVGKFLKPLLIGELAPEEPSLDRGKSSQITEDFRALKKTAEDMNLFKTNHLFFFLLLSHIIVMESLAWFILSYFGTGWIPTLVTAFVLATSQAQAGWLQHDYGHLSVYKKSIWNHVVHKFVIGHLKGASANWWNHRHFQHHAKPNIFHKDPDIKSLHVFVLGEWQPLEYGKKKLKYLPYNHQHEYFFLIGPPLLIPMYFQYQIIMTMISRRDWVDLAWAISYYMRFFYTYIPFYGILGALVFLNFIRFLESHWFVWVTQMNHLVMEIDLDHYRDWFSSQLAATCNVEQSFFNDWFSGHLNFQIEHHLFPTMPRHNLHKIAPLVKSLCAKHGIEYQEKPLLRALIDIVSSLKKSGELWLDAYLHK
T15 sequence (Q9R1J0 whole entry): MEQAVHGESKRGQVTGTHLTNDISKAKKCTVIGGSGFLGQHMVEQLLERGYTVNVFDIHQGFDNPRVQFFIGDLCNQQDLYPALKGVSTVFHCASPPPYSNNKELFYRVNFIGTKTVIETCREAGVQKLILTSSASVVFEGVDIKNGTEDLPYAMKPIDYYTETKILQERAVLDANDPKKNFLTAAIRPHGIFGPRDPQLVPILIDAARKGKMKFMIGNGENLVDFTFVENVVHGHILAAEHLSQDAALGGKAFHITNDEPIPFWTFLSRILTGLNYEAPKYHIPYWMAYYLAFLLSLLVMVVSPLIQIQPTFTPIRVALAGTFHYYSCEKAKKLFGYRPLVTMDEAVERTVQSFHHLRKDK
T14 sequence (Q9R0P6 whole entry): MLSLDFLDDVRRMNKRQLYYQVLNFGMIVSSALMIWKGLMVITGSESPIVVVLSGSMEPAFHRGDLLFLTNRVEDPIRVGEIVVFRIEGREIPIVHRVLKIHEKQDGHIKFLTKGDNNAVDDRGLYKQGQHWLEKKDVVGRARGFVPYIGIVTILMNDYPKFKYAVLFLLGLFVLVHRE
T13 sequence (Q9CPQ3 whole entry): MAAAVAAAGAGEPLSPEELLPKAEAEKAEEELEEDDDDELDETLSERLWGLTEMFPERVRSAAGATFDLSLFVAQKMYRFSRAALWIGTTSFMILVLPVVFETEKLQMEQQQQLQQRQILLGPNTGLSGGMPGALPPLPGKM
T7 sequence (Q78IK4 28-265): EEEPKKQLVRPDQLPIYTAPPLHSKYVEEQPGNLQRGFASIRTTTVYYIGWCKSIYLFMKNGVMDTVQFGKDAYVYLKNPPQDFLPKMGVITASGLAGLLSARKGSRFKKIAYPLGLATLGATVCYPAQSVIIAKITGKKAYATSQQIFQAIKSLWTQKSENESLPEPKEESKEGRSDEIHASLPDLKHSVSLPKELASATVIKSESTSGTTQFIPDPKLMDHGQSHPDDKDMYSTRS
Sequence of AEA-DA lipid probe targets in Neuro2a cells (Mus musculus, UniProt P21619) (P21619 whole entry): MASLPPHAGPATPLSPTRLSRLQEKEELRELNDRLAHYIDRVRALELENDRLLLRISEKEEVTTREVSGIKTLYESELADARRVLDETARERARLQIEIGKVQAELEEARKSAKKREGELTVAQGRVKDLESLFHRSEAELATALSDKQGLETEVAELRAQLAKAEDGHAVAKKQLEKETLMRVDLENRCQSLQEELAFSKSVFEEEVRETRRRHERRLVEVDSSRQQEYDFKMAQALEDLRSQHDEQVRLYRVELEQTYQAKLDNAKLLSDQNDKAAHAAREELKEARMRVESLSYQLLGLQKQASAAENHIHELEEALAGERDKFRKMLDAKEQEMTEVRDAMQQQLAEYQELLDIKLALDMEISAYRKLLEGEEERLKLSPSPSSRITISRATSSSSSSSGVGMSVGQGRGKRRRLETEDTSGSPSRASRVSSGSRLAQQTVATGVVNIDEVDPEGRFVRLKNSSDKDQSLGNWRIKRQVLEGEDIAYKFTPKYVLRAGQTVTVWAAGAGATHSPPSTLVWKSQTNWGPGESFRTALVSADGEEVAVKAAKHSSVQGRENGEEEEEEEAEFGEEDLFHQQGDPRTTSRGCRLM
T12 sequence (Q99JY4 whole entry): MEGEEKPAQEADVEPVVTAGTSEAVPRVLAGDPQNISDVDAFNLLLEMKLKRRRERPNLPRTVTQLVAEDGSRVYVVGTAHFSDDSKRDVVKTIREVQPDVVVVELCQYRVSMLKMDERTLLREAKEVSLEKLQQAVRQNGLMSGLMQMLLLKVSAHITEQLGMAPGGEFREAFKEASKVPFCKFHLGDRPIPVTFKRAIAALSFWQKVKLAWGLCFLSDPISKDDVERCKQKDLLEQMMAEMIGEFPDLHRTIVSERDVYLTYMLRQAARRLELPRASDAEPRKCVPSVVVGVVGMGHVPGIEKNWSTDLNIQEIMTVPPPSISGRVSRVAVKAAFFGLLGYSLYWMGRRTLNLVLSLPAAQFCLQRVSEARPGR
T17 sequence (Q9UMX5 32-172, species assumed): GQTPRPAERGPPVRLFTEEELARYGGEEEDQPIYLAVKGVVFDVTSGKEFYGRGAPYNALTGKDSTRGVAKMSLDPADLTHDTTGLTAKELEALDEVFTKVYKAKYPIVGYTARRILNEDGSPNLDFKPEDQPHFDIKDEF
Sequence of AEA-DA lipid probe targets in Neuro2a cells (Mus musculus, UniProt Q80YV4) (Q80YV4 whole entry): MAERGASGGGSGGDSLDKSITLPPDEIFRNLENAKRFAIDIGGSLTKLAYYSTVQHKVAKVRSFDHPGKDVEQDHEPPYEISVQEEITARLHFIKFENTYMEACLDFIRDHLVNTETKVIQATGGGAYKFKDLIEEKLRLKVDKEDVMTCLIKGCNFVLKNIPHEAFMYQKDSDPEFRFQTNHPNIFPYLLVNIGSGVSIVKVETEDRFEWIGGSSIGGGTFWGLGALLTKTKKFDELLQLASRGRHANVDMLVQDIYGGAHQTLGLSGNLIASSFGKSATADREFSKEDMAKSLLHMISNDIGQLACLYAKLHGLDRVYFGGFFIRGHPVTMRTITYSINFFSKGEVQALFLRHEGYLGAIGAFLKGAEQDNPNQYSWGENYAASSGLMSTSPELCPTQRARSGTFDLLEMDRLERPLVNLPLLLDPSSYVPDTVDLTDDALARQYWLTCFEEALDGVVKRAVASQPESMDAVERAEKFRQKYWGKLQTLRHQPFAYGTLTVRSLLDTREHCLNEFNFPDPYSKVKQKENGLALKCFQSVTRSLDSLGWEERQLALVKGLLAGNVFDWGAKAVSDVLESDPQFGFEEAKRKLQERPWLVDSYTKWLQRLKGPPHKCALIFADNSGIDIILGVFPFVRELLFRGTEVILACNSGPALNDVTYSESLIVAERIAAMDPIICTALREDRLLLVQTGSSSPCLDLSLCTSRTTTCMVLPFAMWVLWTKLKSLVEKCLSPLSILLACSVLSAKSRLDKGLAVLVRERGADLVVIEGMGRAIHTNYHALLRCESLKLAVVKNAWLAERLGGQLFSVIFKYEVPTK
T8 sequence (Q8BHC4 whole entry): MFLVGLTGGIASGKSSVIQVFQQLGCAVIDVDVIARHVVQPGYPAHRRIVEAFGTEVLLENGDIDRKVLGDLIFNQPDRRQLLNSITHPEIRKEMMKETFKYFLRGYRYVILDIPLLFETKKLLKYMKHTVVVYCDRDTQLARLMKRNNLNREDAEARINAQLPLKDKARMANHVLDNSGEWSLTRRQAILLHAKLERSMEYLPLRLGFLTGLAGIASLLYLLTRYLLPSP

As for `CN1CCN(C(=O)c2[nH]c3ccc([N+](=O)[O-])cc3c2-c2ccccc2)CC1` [MJN228, (4-Methylpiperazin-1-yl)(5-nitro-3-phenyl-1H-indol-2-yl)methanone], the “SILAC ratio (AEA-DA competition)” value worked out at 1.9 in experiment [1], 1.1 in [2] (competitor 10 μM), 1.6 in [2] (competitor 25 μM) and 1.1 in [2] (competitor 100 μM).
Regarding `C#CCCCC1(CC/C=C\C/C=C\C/C=C\CCCC(=O)NCCO)N=N1` [AEA-DA, (5Z,8Z,11Z)-N-(2-hydroxyethyl)-14-(3-(pent-4-yn-1-yl)-3H-diazirin-3-yl)tetradeca-5,8,11-trienamide], the “SILAC ratio, EMD (O08579)” value in experiment [3] is reported as 20.0. The “SILAC ratio, HMOX2 (P30519)” value in experiment [4] is reported as 4.0. For the same molecule, the “SILAC ratio, AEA-DA probe versus No UV” value was determined as 20.0 in experiment [5], 6.4 in [8], 20.0 in experiment [10] and 15.1 in experiment [12]. The “SILAC ratio, VDAC2 (P45880)” value in experiment [6] is 16.5. Further, the “SILAC ratio, PSAP (P07602)” value in experiment [7] is listed as 20.0. In experiment [9], the “SILAC ratio, DCAKD (Q8BHC4)” value amounted to 9.0. Further, the “SILAC ratio, ABHD6 (Q8R2Y0)” value in experiment [11] is reported as 20.0. Besides, the “SILAC ratio, TRABD (Q99JY4)” value in experiment [13] stood at 12.0. In addition, the “SILAC ratio, TOMM22 (Q9CPQ3)” value in [14] was 20.0. Moreover, the “SILAC ratio, SEC11A (P67812)” value in [15] is given as 5.4. Further, in experiment [16], the “SILAC ratio, NSDHL (Q15738)” value was found to be 9.4. In experiment [17], the “SILAC ratio, FADS2 (Q9Z0R9)” value was determined as 10.5.
Consider `CCCCC/C=C\C/C=C\C/C=C\C/C=C\CCCC(=O)NCCO` [AEA, anandamide, reference compound], for which the “competition of AEA-DA probe labeling of recombinant NENF” value in experiment [18] was “competitively blocked”. Further, the “SILAC ratio Pank4” value in experiment [19] is recorded as 1.6.
Regarding `O=C(/C=C/c1cccnc1)NCCCCC1CCN(C(=O)c2ccccc2)CC1` [FK-866, reference compound], in [20], the “SILAC ratio, Plec” value is 2.1.
